Several values for one entry are separate records, joined by “and”; a condition that tells them apart may be missing. Equal entries are not always repeated.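 Test compounds were applied to cells in 96-well plates for 48 hours at 5 doses. GI50 is the concentration that inhibits growth by half. TGI: total growth inhibition.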
Columns and labels:
Assay in all cases: NCI-60 cell line screen, 48 h
[1] = tested on: CCRF-CEM leukemia
[2] = tested on: DU-145 prostate
[3] = tested on: EKVX NSCLC
[4] = tested on: HS 578T breast
[5] = tested on: NCI-H226 lung
[6] = tested on: NCI-H460 lung
[7] = tested on: OVCAR-3 ovarian
[8] = tested on: OVCAR-5 ovarian
[9] = tested on: SW-620 colon
[10] = tested on: UO-31 renal

| Compound | GI50 [1] | TGI [1] | GI50 [2] | TGI [2] | GI50 [3] | TGI [3] | GI50 [4] | TGI [4] | GI50 [5] | TGI [5] | GI50 [6] | TGI [6] | GI50 [7] | TGI [7] | GI50 [8] | TGI [8] | GI50 [9] | TGI [9] | GI50 [10] | TGI [10] |
| --- | --- | --- | --- | --- | --- | --- | --- | --- | --- | --- | --- | --- | --- | --- | --- | --- | --- | --- | --- | --- |
| Oc1c(CN2CCCC2)cc(COCc2ccc(Br)cc2)c2cccnc12 | 443 nM | 2.65 µM | 0.868 µM | 11 µM | 0.723 µM | 11.8 µM | 2820 nM | 17.1 µM | 1050 nM | 2.96 µM | 433 nM | 2.01 µM | 0.413 µM | 1.87 µM | 2.87 µM | 13.6 µM | 574 nM | 7.21 µM | 56.9 nM | 0.903 µM |
| CC(=O)O[C@H](C[C@H](C(C)C)N(C)C(=O)[C@@H](NC(=O)[C@H]1CCCCN1C)C(C)C)c1nc(C(=O)N[C@@H](Cc2ccccc2)C[C@H](C)C(=O)O)c(C(C)C)s1 | < 3.33 nM | > 33.3 µM | < 0.00333 µM | 0.0827 µM | 0.00336 µM | > 33.3 µM | < 3.33 nM | 3.08 µM | 3.35 nM | 0.382 µM | < 3.33 nM | 5.05 µM | < 0.00333 µM | 0.00598 µM | 0.0176 µM | > 33.3 µM | < 3.33 nM | > 33.3 µM | 16.1 nM | > 33.3 µM |
| COc1ccc(C2=NN(C(=O)c3cc(OC)c(OC)c(OC)c3)C(c3ccc(Cl)cc3)C2)cc1OC (stereo unspecified) | 2340 nM | > 100 µM | 3.62 µM | > 58.9 µM | 5.86 µM | > 100 µM | 3590 nM | > 42.4 µM |  | > 57.7 µM | 2110 nM | > 100 µM | 0.464 µM | 1.71 µM | 76.5 µM | > 100 µM | 1600 nM | > 100 µM | 1110 nM | 41.8 µM |
| CN1CCN(c2ccc3nc(-c4c(N)c5c(F)cccc5[nH]c4=O)[nH]c3c2)CC1 | 834 nM and 684 nM and 1010 nM | 7.93 µM and > 5.89 µM and 9.41 µM | 0.991 µM and 0.547 µM and 1.06 µM | 2.97 µM and > 6.53 µM and 9.59 µM | 2.38 µM and > 2.44 µM and 4.23 µM | 9.65 µM and > 7.22 µM and 16.2 µM | 791 nM and 286 nM and 974 nM | 5.77 µM and > 2.37 µM and 9.75 µM | 525 nM and 476 nM and 537 nM | 8.36 µM and > 6.97 µM and 17.6 µM | 369 nM and 344 nM and 454 nM | 1.72 µM and 1.79 µM and 2.2 µM | 1.47 µM and 1.27 µM and 3.2 µM | 2.96 µM and > 8.27 µM and 8.9 µM | 1.42 µM and 1.03 µM and 1.76 µM | 3.94 µM and > 6.96 µM and 6.94 µM | 533 nM and 379 nM and 576 nM | 1.94 µM and 3.21 µM and 2.65 µM | 347 nM and 224 nM and 232 nM | 1.91 µM and > 2.8 µM and 1.54 µM |
| Cc1ccc(C)c(NC(=O)NCc2ccc(Cl)cc2)c1 |  | > 27.6 µM |  | > 100 µM |  | > 100 µM |  | > 100 µM |  | 98.8 µM |  | > 100 µM |  | > 100 µM |  | > 100 µM |  | > 100 µM |  | > 100 µM |
| COC(=O)[C@]12CC[C@@H](C)[C@H](C)[C@@H]1C1=CC[C@@H]3[C@@]4(C)C(C=O)=C[C@@](C)(COC(=O)c5ccco5)[C@@H]4C(=O)C[C@@]3(C)[C@]1(C)CC2 | 2420 nM | 12.6 µM | 8.8 µM | > 100 µM | 4.64 µM | > 100 µM | 9680 nM | > 100 µM | 2630 nM | 12.6 µM | 3920 nM | > 100 µM | 5.75 µM | > 100 µM | 68.8 µM | > 100 µM | 4900 nM | > 100 µM | 3540 nM | > 100 µM |
| C[C@@H]1CC[C@@H]2[C@@H]1[C@H](OC(=O)/C=C/c1ccccc1)[C@]1(C3CCCCC3)C[C@@H](NC(=O)CO)[C@@]2(C)O1 | 23200 nM | 45.2 µM | 18.4 µM | 32.9 µM | 13.5 µM | 27.5 µM | 2790 nM | 9.21 µM | 16700 nM | 32.4 µM | 16600 nM | 32.8 µM | 17.3 µM | 34.2 µM | 16.2 µM | 30.8 µM | 17800 nM | 34.1 µM | 4800 nM | 18.7 µM |
| O=C(Nc1ccc(Oc2ccc3nc(NC(=O)c4ccccc4)[nH]c3c2)cc1)Nc1cc(C(F)(F)F)ccc1F | 657 nM | > 9.17 µM | 1.32 µM | 16.6 µM | 0.969 µM | > 25 µM | 1070 nM | 11.6 µM | 603 nM | 3.97 µM | 1590 nM | > 22.4 µM | 1.04 µM | 6.12 µM | 4.41 µM | > 25 µM | 1270 nM | > 25 µM | 1310 nM | 15.6 µM |
| CCOC(=O)/C=C/c1cc2cc(-c3csc4ccccc34)ccc2[nH]1 | 3040 nM | 11.4 µM | 4.83 µM | 16.6 µM | 7.36 µM | 20.2 µM | 5070 nM | 22.2 µM | 10600 nM | 32.7 µM | 15500 nM | 31.3 µM | 5.34 µM | 17.1 µM | 21.6 µM | 42.6 µM | 3540 nM | 14.1 µM | 4940 nM | 19.1 µM |
| CNC(=O)c1ccc2cc(C3(O)CCn4cncc43)ccc2c1 (stereo unspecified) | > 100000 nM | > 100 µM | > 100 µM | > 100 µM | > 100 µM | > 100 µM | > 100000 nM | > 100 µM | > 100000 nM | > 100 µM | > 100000 nM | > 100 µM | > 100 µM | > 100 µM | > 100 µM | > 100 µM | > 100000 nM | > 100 µM | > 100000 nM | > 100 µM |
| O=C(CSC(c1ccccc1)c1ccccc1)N/N=C/c1cccc(Cl)c1 | 755 nM | 31 µM | 16.4 µM | 30 µM | 16.3 µM | 35.9 µM | 15700 nM | 38.2 µM | 15600 nM | 31.3 µM | 17600 nM | 34.8 µM | 21.4 µM | 38.9 µM | 17.5 µM | 33.8 µM | 15000 nM | 29.2 µM | 11700 nM | 23.9 µM |
| COc1ccc2c(c1)C(=O)c1c-2c(Nc2ccc(C(C)=O)cc2)nc2ccccc12 | > 100000 nM | > 100 µM | 29 µM | > 100 µM | 25.2 µM | > 100 µM | 8390 nM | > 100 µM | 38300 nM | > 100 µM | 85100 nM | > 100 µM | > 100 µM | > 100 µM | 29.6 µM | > 100 µM | > 100000 nM | > 100 µM | > 100000 nM | > 100 µM |
| O=P(NC12CC3CC(CC(C3)C1)C2)(N1CC1)N1CC1 |  | > 100 µM |  | > 100 µM |  | > 100 µM |  | > 100 µM |  | > 94.8 µM |  | > 100 µM |  | > 100 µM |  | > 100 µM |  | > 100 µM |  | > 100 µM |
| CN(N=O)C(=O)N[C@@H](C=O)[C@@H](O)[C@H](O)[C@H](O)CO | > 750000 nM | 522 µM and > 750 µM |  | > 750 µM | > 750 µM | > 750 µM |  | > 750 µM | > 750000 nM | > 750 µM | > 750000 nM | > 750 µM |  | 670 µM | > 750 µM | > 750 µM | > 750000 nM | 590 µM and > 750 µM | > 750000 nM | > 750 µM |
| COc1cnc2c(c1)C(=O)c1c-2n(CCCN2CCC(O)CC2)c(=O)c2cc(F)ccc12 | 79.7 nM | 1.95 µM | 0.174 µM | 1.41 µM | 0.271 µM | 1.62 µM | 1670 nM | 52.4 µM | 135 nM | 0.307 µM | 44.4 nM | 0.221 µM | 0.254 µM | 1.18 µM | 0.355 µM | 1.6 µM | 107 nM | 2.1 µM | 135 nM | 0.619 µM |
| CCOC(=O)C1=C(C)NC2SC(=O)/C(=C\c3ccccc3O)N2C1c1ccccc1 (stereo unspecified) | 10200 nM | 75.2 µM | 30.5 µM | > 100 µM | 34.1 µM | > 100 µM | 17400 nM | 50.2 µM | 29000 nM | 90.4 µM | 24300 nM | 79.4 µM | 20.4 µM | 49.9 µM | 63 µM | > 100 µM | 38500 nM | > 100 µM | 21900 nM | 66.8 µM |
| CC(C)(C#N)c1cc(F)cc(C(=O)Nc2cc(Nc3ncccc3-c3ncnc4nc[nH]c34)ccc2F)c1 | 3910 nM | > 10 µM | 5.51 µM | > 10 µM | 6.55 µM | > 10 µM | 1410 nM | > 10 µM | 804 nM | > 10 µM | 2510 nM | > 10 µM | 5.5 µM | > 10 µM | 0.451 µM | > 10 µM | 1130 nM | > 10 µM | 287 nM | 3.64 µM |

— PubChem BioAssay (NCI)
